The values below come from article PMC12395388 (Regulatory toxicology and pharmacology : RTP, 2024).

Entries after “also recorded” stand apart in the source; their conditions may differ. Read-outs that look alike come from different tables or passages of the source.

For data set [1] the following is noted: PC1 most potent, PC5 least potent; ref FDA, 2024a; cited from earlier work.
For data set [2] the following is noted: published by FDA as of September 4, 2024, ref FDA, 2024a; cited from earlier work.
For data set [3], the system named is E. coli WP2 uvrA (pKM101). Kind of data set: Preincubation Ames test, strain WP2 uvrA. Type of data set: cell-based, Escherichia coli. Particulars: for Mutagenic response in WP2 uvrA (pKM101): any activation condition and preincubation time; for Effectiveness of time of preincubation for most effective S9 / Effectiveness of hamster vs. rat S9s for each positive strain: strain WP2 uvrA (pKM101); for Effectiveness of time of preincubation for most effective S9: 30 vs 60 min; for Effectiveness of hamster vs. rat S9s for each positive strain: H = hamster liver S9, R = rat liver S9.

Data set [4] deals with Salmonella typhimurium tester strains TA98, TA100, TA1535, and TA1537, and Escherichia coli strain WP2 uvrA (pKM101). Kind of data set: Preincubation Ames test, five tester strains. Particulars: for Effect of length of preincubation on positive responses: 30 min vs 60 min, over all strains. The class given is cell-based. In general terms: The Ames test uses bacterial strains that need an amino acid and regain growth without it when mutated back.

Data set [5] relates to Salmonella typhimurium TA1535. Kind of data set: Preincubation Ames test, strain TA1535. Type of data set: cell-based. Particulars: for Mutagenic response in TA1535: any activation condition and preincubation time; for Effectiveness of time of preincubation for most effective S9 / More effective %S9 in S9 mix of more effective S9 (H or R) / Effectiveness of hamster vs. rat S9s for each positive strain: strain TA1535; for Effectiveness of time of preincubation for most effective S9: 30 vs 60 min; for More effective %S9 in S9 mix of more effective S9 (H or R): 10% vs 30% S9 in the S9 mix; for Effectiveness of hamster vs. rat S9s for each positive strain: H = hamster liver S9, R = rat liver S9.

Data set [6] deals with Salmonella typhimurium TA100. Kind of data set: Preincubation Ames test, strain TA100. As to conditions: for Effectiveness of time of preincubation for most effective S9: 30 vs 60 min. Type of data set: cell-based.
The subject of another data set is Ames tester strains. As to conditions: cited from earlier work.
For data set [7] the following is noted: cited from earlier work.
For data set [8], the system named is Salmonella typhimurium TA98. Kind of data set: Preincubation Ames test, strain TA98. Type of data set: cell-based. As to conditions: for Effectiveness of time of preincubation for most effective S9: 30 vs 60 min; for Direct-acting mutagenicity in TA98: no exogenous metabolic activation (no S9).
For data set [9], the system named is CHO, V79, L5178Y/Tk+/−, TK6, HepaRG cells. Particulars: cell lines as named in the value; ref as given in Table 2 Notes; cited from earlier work.
[10] abbreviates: published/posted results, ref representative Ames references of Table 2.
[11] abbreviates: with S9 activation, listed as N-nitroso-propranolol.
Where [12] appears, read: listed as N-nitroso-N-ethylaniline.

As to `CN(C[C@H](O)c1cccc(O)c1)N=O` [NDSRI-13, N-[(2R)-2-Hydroxy-2-(3-hydroxyphenyl)ethyl)-N-methylnitrous amide], the “CPCA Potency Category (PC)” value in [1] is listed as “PC2”. In addition, in data set [2], the AI limit is reported as 100 ng/day.
As for `CN(N=O)C1CCC(c2ccc(Cl)c(Cl)c2)c2ccccc21` (centres unmarked) [NDSRI-21, N-(4-(3,4-Dichlorophenyl)-1,2,3,4-tetrahydronaphthalen-1-yl)-N-methylnitrous amide], the “Mutagenic response in WP2 uvrA (pKM101)” value in data set [3] (listed as N-nitroso-sertraline) is given as “positive only; also recorded: mutagenic”. For the same compound, in data set [3], the “Effectiveness of time of preincubation for most effective S9” value (from here on “Effectiveness of time of preincubation”) was 30min >60min and the “Effectiveness of hamster vs. rat S9s for each positive strain” value (shortened to “Effectiveness of hamster vs. rat S9s”) is recorded as “H only”. For the same compound, the “Effect of length of preincubation on positive responses” value (from here on “Effect of length of preincubation”) in data set [4] is “greater mutagenic responses with 30-min preincubations than with 60-min preincubations”. In addition, in data set [5] (listed as N-nitroso-sertraline), the “Mutagenic response in TA1535” value is recorded as “negative; also recorded: not positive”. In addition, the “CPCA Potency Category (PC)” value in data set [1] is on record as “PC2”. Besides, in data set [2], the AI limit is 100 ng/day.
`CCCCCCOC(=O)NC(=N)c1ccc(N(Cc2nc3cc(C(=O)N(CCC(=O)OCC)c4ccccn4)ccc3n2C)N=O)cc1` [NDSRI-29, Ethyl 3-[[2-[[4-(N-hexoxycarbonylcarbamimidoyl)-N-nitrosoanilino]methyl]-1-methylbenzimidazole-5-carbonyl]-pyridin-2-ylamino]propanoate]: the “CPCA Potency Category (PC)” value in data set [1] is “PC3”. Further, the AI limit in data set [2] is listed as 400 ng/day.
On to `CN(CCOC(c1ccccc1)c1ccccc1)N=O` [NDSRI-16, N-(2-(Benzhydryloxy)ethyl)-N-methylnitrous amide], for which the “Effectiveness of time of preincubation” value was found to be 60min >30min in data set [3], 60min = 30min in data set [5] and 60min = 30min in [6] (strain TA100). For the same compound, the “Effect of length of preincubation” value in data set [4] is recorded as “possibly N-nitroso-desmethyl-diphenhydramine benefited from a preincubation of 60 min compared with 30 min”.
For `CN(CCC(Oc1ccc(C(F)(F)F)cc1)c1ccccc1)N=O` (centres unmarked) [NDSRI-22, N-Methyl-N-[3-phenyl-3-[4-(trifluoromethyl)phenoxy]propyl]nitrous amide], the “Ames response (all S9-mediated except where noted)” value (shortened to “Ames response”) in the data set on Ames tester strains is given as “Positive”. The “Effectiveness of time of preincubation” value in [3] came to 30min >60min; in [5] it was 60min = 30min; in [6] (strain TA100) it was 30min only; in data set [8] (strain TA98), 30min only. The “Effect of length of preincubation” value in data set [4] (listed as N-nitroso-fluoxetine) is listed as “greater mutagenic responses with 30-min preincubations than with 60-min preincubations”. For the same compound, the “More effective %S9 in S9 mix of more effective S9 (H or R)” value in [5] came to 30% only; in data set [6] (strain TA100, 10% vs 30% S9 in the S9 mix), 30% only; in data set [8] (strain TA98, 10% vs 30% S9 in the S9 mix), 30% only. Moreover, the “Effectiveness of hamster vs. rat S9s” value in [5] is “H only”; in data set [6] (strain TA100, H = hamster liver S9, R = rat liver S9), “H only”; in [8] (strain TA98, H = hamster liver S9, R = rat liver S9), “H only”. The “Mutagenicity in TGR assay” value in [7] (in vivo) is given as “mutagenic in rat TGR assay”.
As to `O=NN1CCN(C2CCCC2)CC1` [SM-10, 1-Cyclopentyl-4-nitrosopiperazine], the “Effectiveness of time of preincubation” value was 60min = 30min in data set [3], 60min = 30min in data set [5] and 30min ≥60min in data set [6] (strain TA100). Also, the “Effectiveness of hamster vs. rat S9s” value in [3] is “H only”. In data set [1], the “CPCA Potency Category (PC)” value is “PC3”. The AI limit in data set [2] was 400 ng/day. In addition, in data set [9], the “Mutagenicity/genotoxicity in mammalian cells in vitro” value is “Genotoxic in HepaRG cells ([Seo et al., 2023])”.
Take `CC(C)[C@H](C(=O)O)N(Cc1ccc(-c2ccccc2-c2nn[nH]n2)cc1)N=O` [NDSRI-25, (2R)-3-Methyl-2-[nitroso-[[4-[2-(2H-tetrazol-5-yl)phenyl]phenyl]methyl]amino]butanoic acid]: in the data set on Ames tester strains, the “Ames response” value was “Negative”. For the same compound, in data set [7] (in vivo), the “Mutagenicity in TGR assay” value was “Also negative in mouse TGR assay ([Glowienke et al., 2022])”.
Take `CCN(N=O)C(C)C` [SM-3, N-Ethyl-N-propan-2-ylnitrous amide]: the “Effectiveness of time of preincubation” value in [3] and in data set [5] was 60min = 30min throughout. Also, the “CPCA Potency Category (PC)” value in [1] is reported as “PC3”. In [2], the AI limit is on record as 400 ng/day. Besides, the “Mutagenicity/genotoxicity in mammalian cells in vitro” value in data set [9] is “Genotoxic in HepaRG, TK6 cells ([Li et al., 2022]; [Seo et al., 2023])”.
As for `CC(C)N(CC(O)COc1cccc2ccccc12)N=O` (centres unmarked) [NDSRI-17, N-(2-Hydroxy-3-naphthalen-1-yloxypropyl)-N-propan-2-ylnitrous amide], the “Ames response” value in the data set on Ames tester strains (setting [10]) is “Positive; direct-acting in TA98”. The “Effectiveness of time of preincubation” value in data set [5], in data set [6] (strain TA100) and in data set [8] (strain TA98) was 60min = 30min each time. Further, the “S9-mediated mutagenicity in TA1535” value in [5] (setting [11]) is listed as “mutagenic”. Besides, in [6] (setting [11]), the “S9-mediated mutagenicity in TA100” value is “mutagenic”. Besides, the entries for the “Direct-acting mutagenicity in TA98” value in data set [8] and in data set [8] (listed as N-nitroso-propranolol) were “b Direct acting mutagen in TA98” and “direct acting mutagen; also recorded: direct-acting mutagenicity of N-nitroso-propranolol was limited to TA98”, respectively. For the same compound, the “CPCA Potency Category (PC)” value in data set [1] is “PC4”. The AI limit in data set [2] is listed as 1500 ng/day.
`CN(CCC(Oc1cccc2ccccc12)c1cccs1)N=O` (centres unmarked) [NDSRI-20, N-Methyl-N-(3-naphthalen-1-yloxy-3-thiophen-2-ylpropyl) nitrous amide]: the “Ames response” value in the data set on Ames tester strains (setting [10]) is listed as “Positive”. For the same compound, the “Effectiveness of time of preincubation” value worked out at 60min = 30min in data set [3], 60min = 30min in data set [5] and 30min >60min in data set [6] (strain TA100). Further, the “Mutagenicity in TGR assay” value in data set [7] (species as in value, ref as given in Table 2 Notes) was “Interim AI limit currently in force; mutagenic in rat TGR assay ([Jolly et al., 2024])”. Moreover, the AI limit in data set [2] is 100 ng/day.
As to `CN(CCC=C1c2ccccc2CCc2ccccc21)N=O` [NDSRI-18, N-Methyl-N-[3-(2-tricyclo[9.4.0.03,8]pentadeca-1 (15),3,5,7,11,13-hexaenylidene)propyl]nitrous amide], the “Effectiveness of time of preincubation” value in [3], in [5] and in data set [6] (strain TA100) was 60min = 30min throughout.
`C[C@H]1CN(N=O)CCc2ccc(Cl)cc21` [NDSRI-14, (5R)-7-Chloro-5-methyl-3-nitroso-1,2,4,5-tetrahydro-3-benzazepine]: the “Effectiveness of time of preincubation” value in [3], in data set [5], in data set [6] (strain TA100) and in [8] (strain TA98) was 60min = 30min in each case.
Turning to `CC(C)N(N=O)C(C)C` [SM-5, N,N-Di(propan-2-yl)nitrous amide], the “Activation condition required for positive responses” value in data set [4] (no S9, 10% and 30% rat or hamster liver S9, all strains, listed as NDIPA) was “positives were seen only with one strain (TA1535) and under one activation condition (preincubation with 30% hamster S9 mixes); also recorded: dependent upon preincubation with 30% hamster S9; also recorded: exclusively mutagenic with hamster liver S9”. For the same compound, in data set [5], the “Mutagenic response in TA1535” value is recorded as “only positive strain”, the “More effective %S9 in S9 mix of more effective S9 (H or R)” value amounted to 30% only, the “Effectiveness of time of preincubation” value was 60min = 30min and the “Effectiveness of hamster vs. rat S9s” value is reported as “H only”. Further, in data set [1], the “CPCA Potency Category (PC)” value is reported as “PC5”. In data set [2], the AI limit was 1500 ng/day.
Regarding `CCN(N=O)c1ccccc1` [SM-8, N-Ethyl-N-phenylnitrous amide], in the data set on Ames tester strains, the “Ames response” value is “Positive only with comutagen”. Besides, the “Mutagenic response in WP2 uvrA (pKM101)” value in data set [3] (setting [12]) is reported as “positive only”; in [3] (listed as NEPA), “mutagenic”. The “Effectiveness of time of preincubation” value in [3] was 60min ≥ 30min. Further, the “Effect of length of preincubation” value in data set [4] is reported as “benefited from a preincubation of 60 min compared with 30 min”. The entries for the “Mutagenic response in TA1535” value in data set [5] (setting [12]) and in data set [5] (listed as NEPA) were “negative” and “not positive”, respectively.
As to `O=NN(c1ccccc1CC(=O)O)c1c(Cl)cccc1Cl` [NDSRI-19, 2-[2-(2,6-Dichloro-N-nitrosoanilino)phenyl]acetic acid], the AI limit in data set [2] is 1500 ng/day.
